The source of these data is patent US20260108480A1, “METHODS FOR INDUCING PROLIFERATION OF STEM CELLS” (UNIVERSITY OF PITTSBURGH-OF THE COMMONWEALTH SYSTEM OF …, priority 2022, published 2026).

For series [1], the system named is primary PRX1 expressing SSCs isolated from the calvarial sutures of PRX1-creER-EGFP mice. The series can be described thus: MTT proliferation assay of primary PRX1 expressing cells isolated from calvarial sutures. The series is classed as cell-based, mouse. Particulars: for ability to induce proliferation of primary PRX1 expressing SSCs (screen of 5 WNT inhibitors): most effective concentrations of previous studies, FIGS. 22A-22B. The text has this:
(§1) FIGS. 22A-22H. […] (22A-22B) MTT proliferation assays of primary PRX1 expressing cells isolated from the calvarial sutures of PRX1-creER-EGFP+/+ mice. […] (22C) MTT proliferation assays of immortalized PRX1 expressing cells isolated from the calvarial sutures of PRX1-creER-EGFP+/+ mice. […] (22D-22F) Quantitative RT-PCR of osteoblast differentiation genes of immortalized PRX1 expressing cells isolated from the calvarial sutures of PRX1-creER-EGFP+/+ mice. […] (22G-22H) FAC-sorting analysis of tissue-cultured sutures isolated from of PRX1-creER-EGFP+/+ mice. Suture were explanted and cultured ex vivo.
(§2) WNT inhibitor candidates were identified by looking into cancer studies, as thousands of small molecules have been screened for their potential to inhibit WNT signaling in WNT-activated cancer cells (30). Several molecules have shown inhibition of canonical WNT activity in vitro but only few have been tested in vivo, in mice. Among those tested in vivo, 5 were selected because of their proven efficacy and safety: G007-LK (31), Pyrvinium (25,26), Quercetin (32,33), XAV939 (27), and Niclosamide (34). Actually, Niclosamide and Pyrvinium are anti-helminthic FDA-approved drugs (35,36) and Quercetin is a flavonol found in many fruits and vegetables that is used as an ingredient in supplements, beverages, or foods (33). […] Previous studies indicate that Niclosamide, besides inhibiting the WNT pathway, presents with various additional effects such as uncoupling oxidative phosphorylation and disrupting several different signaling pathways, including the NOTCH, mTORCT, NFkB, and STAT3 pathways (38-44).

For series [2], the system named is immortalized PRX1 expressing cells isolated from the calvarial sutures of PRX1-creER-EGFP+/+ mice. Put plainly: MTT proliferation assay of immortalized PRX1 expressing cells. The format is cell-based, mouse. Particulars: after 48 hours (FIG. 22C).
Text: as §1
WNT inhibitor candidates were identified by looking into cancer studies, as thousands of small molecules have been screened for their potential to inhibit WNT signaling in WNT-activated cancer cells (30). Several molecules have shown inhibition of canonical WNT activity in vitro but only few have been tested in vivo, in mice. Among those tested in vivo, 5 were selected because of their proven efficacy and safety: G007-LK (31), Pyrvinium (25,26), Quercetin (32,33), XAV939 (27), and Niclosamide (34). Actually, Niclosamide and Pyrvinium are anti-helminthic FDA-approved drugs (35,36) and Quercetin is a flavonol found in many fruits and vegetables that is used as an ingredient in supplements, beverages, or foods (33). […]
(Formazan colour is commonly taken as a measure of viable cells.)

In series [3] the test system is osteoblast differentiation genes (RUNX2, SP7, Osteocalcin) in immortalized PRX1 expressing cells. The series can be described thus: Quantitative RT-PCR of osteoblast differentiation genes in immortalized PRX1 expressing cells. The series is classed as cell-based, mouse.
Text: as §1, §2

The test system of series [4] is GFP+ (PRX1 expressing) and GFP- cells of explanted calvarial sutures of PRX1-creER-EGFP+/+ mice. The series can be described thus: FAC-sorting analysis of tissue-cultured explanted sutures (ex vivo). The series is classed as cell-based, mouse.
Text: as §1
However, no increase of GFP-cells (22H) is detected. All above studies (22A-22E) were repeated 2 or 3 times, with consistent results.
WNT inhibitor candidates were identified by looking into cancer studies, as thousands of small molecules have been screened for their potential to inhibit WNT signaling in WNT-activated cancer cells (30). Several molecules have shown inhibition of canonical WNT activity in vitro but only few have been tested in vivo, in mice. Among those tested in vivo, 5 were selected because of their proven efficacy and safety: G007-LK (31), Pyrvinium (25,26), Quercetin (32,33), XAV939 (27), and Niclosamide (34). […]

For the next series, the system named is PRX1 expressing SSCs. Put plainly: In vivo flow cytometry quantification of PRX1 expressing SSCs after IP treatment. Also noted: species or system mouse. Particulars: 8-week old mice, 20 mg/Kg IP, 5 days/week. Here is the method: (§3) FIGS. 23A-23D. […] (23A-23C) Flow cytometry was utilized to quantify the number of PRX1 expressing SSCs after treatment with Niclosamide (20 mg/kg of body weight, IP, 5 days/week, for 3 consecutive weeks) or with vehicle (control) in calvarial sutures (23A), in the periosteum of long bones (23B), and in the periodontal ligament of posterior molar teeth (23C). 4 mice/treatment (2 males and 2 females). (23D) Micro-computed tomography was utilized to measure bone mass (BV/TV) in the femurs of male and female mice after treatment with Niclosamide (20 mg/kg of body weight, IP, 5 days/week for 3 consecutive weeks) or with vehicle (control) (n=2). […] To do so, skeletally mature 8-week old mice were treated with intraperitoneal (IP) injections of Niclosamide (20 mg/Kg of body weight) or vehicle (control) 5 days/week, for 3 weeks (FIGS. 23A-23D).

Series [5] can be described thus: Micro-computed tomography of femur bone mass (BV/TV) after IP treatment. Particulars: male and female mice, 20 mg/Kg IP, 5 days/week, 3 weeks (FIG. 23D). The format is in vivo, mouse. Here is the method:
as §3

The test system of series [6] is critical size calvarial bone defect. Put plainly: Local delivery in carboxymethylcellulose gel into critical size calvarial bone defect, μCT. The format is in vivo, mouse. Particulars: 2 mm defect, 8 week old C57Bl/6 female mice, 10 μL 12% carboxymethylcellulose gel containing 100 μg niclosamide, 4 weeks after surgery, n=3.
Protocol: Immediately after creation of the defect, 10 μL of a 12% carboxymethylcellulose gel (CONTROL) (24A) or 10 μL of a 12% carboxymethylcellulose gel containing 100 μg of niclosamide (TEST) (24B) were implanted within the bone defect. […] Student's t-test was used for statistical evaluation (n=3, ** indicates p<0.01). […] Immediately after creation of the defect, 10 μL of a 12% carboxymethylcellulose gel (CONTROL) or 10 μL of a 12% carboxymethylcellulose gel containing 100 g of niclosamide (TEST) were implanted within the bone defect (FIGS. 24A-24B). Bone regeneration was assessed by means of μCT, 4 weeks after surgery (FIG. 25). Student's t-test was used for statistical evaluation (n=3, ** indicates p<0.01).
Series [7] has as its system periodontal ligament stem cells expressing Prx1 from mouse incisors. Put plainly: Flow cytometry quantification of Prx1 (GFP) expressing periodontal ligament cells in vitro. The format is cell-based. The note with it: 48 hours. (In general: Flow cytometry measures light scatter and fluorescence of single cells or particles in a stream.)
Text: To perform these studies, transgenic mice was utilized expressing green fluorescent protein (GFP) under the Prx1 promoter. Thus, using these transgenic mice, quantification of GFP expressing cells by means of flow cytometry can be utilized to quantify Prx1 expressing cells.
Series [8] deals with critical size calvarial bone defect. The series can be described thus: Local delivery absorbed into a collagen sponge into critical size calvarial bone defect, μCT. The series is classed as in vivo, mouse. The note with it: collagen sponge carrying 5 μg or 50 μg.
Protocol: To test whether Niclosamide can induce bone regeneration when delivered by means of a collagen sponge instead of a methylcellulose gel, a critical size calvarial bone defect was created (2 mm in diameter) in the right parietal bone of skeletally mature C57Bl/6 female mice (8 week old mice). Immediately after creation of the defect, 5 μL of a 1 pg/pl solution of Niclosamide (dissolved in DMSO) or 5 μl of a 10 μg/μl solution of Niclosamide (dissolved in DMSO) were absorbed into a 1 mm×1 mm×1 mm collagen sponge. Then, the sponge carrying either 5 μg or 50 μg of Niclosamide was implanted into the calvarial bone defects (n=3). Bone defects of the control groups received collagen sponges absorbed with equal volumes (5 μl) of DMSO only Bone regeneration was assessed by means of μCT, 8 weeks after surgery (FIGS. 27A-27C) 3D rendering, (FIG. 27D) quantitative assessment of the regenerated Bone Volume (BV) within the Total Volume (TV) of the calvarial bone defects).

Entries after “also recorded” stand apart in the source; their conditions may differ.

With `O=C(Nc1ccc([N+](=O)[O-])cc1Cl)c1cc(Cl)ccc1O` [Niclosamide], the “proliferation (MTT) of primary PRX1 expressing cells” value in series [1] (after 24 hours (FIG. 22A)) and in [1] (after 48 hours (FIG. 22B)) was “statistically significant proliferation” each time. Besides, the “effect on proliferation compared with the other screened molecules” value in series [1] (comparison with Pyrvinium and Quercetin) was “most significant and prolonged effect”. Besides, the “ability to induce proliferation of primary PRX1 expressing SSCs (screen of 5 WNT inhibitors)” value (shortened to “ability … (screen of 5 WNT inhibitors)”) in series [1] is listed as “able to consistently induce proliferation”. Also, the “proliferation (MTT) of immortalized PRX1 expressing cells” value in series [2] is “could induce proliferation; also recorded: statistically significant proliferation”. Moreover, the “osteoblastic differentiation of PRX1 expressing SSCs (qRT-PCR)” value in [3] (FIGS. 22D-22F) is “inhibits their osteoblastic differentiation”. Also, the “expression of RUNX2 (qRT-PCR)” value in series [3] (immortalized PRX1 expressing cells, after 48 hours (FIG. 22D)) is “statistically significant downregulation”. Moreover, the “expression of SP7 (qRT-PCR)” value in [3] (immortalized PRX1 expressing cells, after 48 hours (FIG. 22E)) is on record as “statistically significant downregulation”. In series [3] (immortalized PRX1 expressing cells, after 48 hours (FIG. 22F)), the “expression of Osteocalcin (OCN) (qRT-PCR)” value is “statistically significant downregulation”. In addition, the “GFP+ cells (PRX1 expressing cells) in explanted sutures” value in series [4] (2 weeks of incubation (FIG. 22G)) is on record as “proliferation of the PRX1 expressing SSCs was observed; also recorded: statistically significant increase”. Further, the “GFP- cells (other cells of the sutures) in explanted sutures” value in [4] (2 weeks of incubation (FIG. 22H)) is on record as “could not be detected; also recorded: no increase”. Further, the “proliferation of PRX1 expressing SSCs in the calvarial sutures” value in the series with PRX1 expressing SSCs (3 weeks (FIG. 23A)) was “induces proliferation”. In addition, the “proliferation of PRX1 expressing SSCs in the periosteum of long bones” value in the series with PRX1 expressing SSCs (3 weeks (FIG. 23B)) is reported as “induces proliferation”. Further, the “proliferation of PRX1 expressing SSCs in the periodontal ligament of the mouse molars” value with PRX1 expressing SSCs (3 weeks (FIG. 23C)) was “induces proliferation”. For the same molecule, the “bone mass (BV/TV) of femurs” value in series [5] was “does not significantly reduce the bone mass”. Further, in [6], the “bone regeneration by μCT” value is reported as “substantial amount of bone regeneration”. Further, the “number of Prx1 expressing (GFP) cells” value in series [7] (0.2 μM and 2 μM, more significant increases with higher doses) is “increase in number”. The “increase of number of Prx1 expressing (GFP) cells” value in series [7] (2 μM, flow cytometry (FIG. 26E)) is recorded as approximately 3.5 folds. Besides, the “regenerated Bone Volume (BV) within Total Volume (TV) of the defect by μCT” value in series [8] (2 mm defect, 8 week old C57Bl/6 female mice, 8 weeks after surgery, n=3, not statistically significant) is “trend of increasing of the regenerated bone mass”. Besides, the “adverse events / general health” value in series [8] (8 weeks) was “no adverse events were recorded”.

With `Cc1cc(/C=C/c2ccc3cc(N(C)C)ccc3[n+]2C)c(C)n1-c1ccccc1` [Pyrvinium], the “proliferation (MTT) of primary PRX1 expressing cells” value in series [1] (after 24 hours (FIG. 22A)) and in [1] (after 48 hours (FIG. 22B)) was “statistically significant proliferation” in each case. The “ability … (screen of 5 WNT inhibitors)” value in series [1] is recorded as “able to consistently induce proliferation”.

For the molecule `O=c1c(O)c(-c2ccc(O)c(O)c2)oc2cc(O)cc(O)c12` [Quercetin], the “ability … (screen of 5 WNT inhibitors)” value in series [1] was “able to consistently induce proliferation”.
